Data: patent US20170334899A1, “AMINO-SUBSTITUTED ISOTHIAZOLES” (Bayer Pharma Aktiengesellschaft, priority 2014, published 2017)

Key:
HeLa = test: Proliferation assay (crystal violet), HeLa; type: cell-based; details: Homo sapiens, HeLa, 96 h, HeLa cells; 4 days incubation; crystal violet staining; read-out: IC50 inhibition of proliferation, HeLa
Outline: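 Seed 1000–5000 cells/well, 10% FCS; 24 h later replace medium and add compound (0.001–10 μM, 0.5% DMSO); incubate 4 d; glutaraldehyde fix, 0.1% crystal violet pH 3.0, elute with 10% acetic acid; A595; 4-parameter IC50.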

[1] = tested on: human cervical tumor cell line HeLa (ATCC CCL-2); test: SAC-Formation - Paclitaxel-Induced Assay; type: cell-based; details: Homo sapiens, HeLa, 24 h, HeLa cells, paclitaxel 0.05 μM, test range 0.005 μM-20 μM, read-out: IC50 [mol/l] SAC-Formation - Paclitaxel-Induced Assay
Outline: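 HeLa cells incubated overnight at 37° C, then given paclitaxel (0.05 μM final) plus test compound (0.005–20 μM, 0.5% DMSO) together for 24 h at 37° C. Fixed cells stained for phospho-histone H3 Ser10 (mitotic cells) and Hoechst 33342 (cell count); imaging-derived mitotic index fitted by four-parameter Hill equation.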

Row | Compound | IC50 (HeLa) [nM] | IC50 [1] [nM]
1 | Cc1nsc(Nc2cnc(C(F)(F)F)cn2)c1C(=O)Nc1ccc(OCCCNCCC(F)(F)F)nc1 [Example 294, 3-methyl-5-{[5-(trifluoromethyl)pyrazin-2-yl]amino}-N-(6-{3-[(3,3,3-trifluoropropyl)amino]propoxy}pyridin-3-yl)-1,2-thiazole-4-carboxamide] | 1300 | 560
2 | Cc1nsc(Nc2cnc(C(F)(F)F)cn2)c1C(=O)Nc1ccc(OC2CCN(CCF)C2)nc1 (centres unmarked) [Example 295, N-(6-{[1-(2-fluoroethyl)pyrrolidin-3-yl]oxy}pyridin-3-yl)-3-methyl-5-{[5-(trifluoromethyl)pyrazin-2-yl]amino}-1,2-thiazole-4-carboxamide] | 380 | 1200
3 | Cc1nsc(Nc2cnc(C(F)(F)F)cn2)c1C(=O)Nc1ccc(OC2CCN(CC(F)F)C2)nc1 (centres unmarked) [Example 296, N-(6-{[1-(2,2-difluoroethyl)pyrrolidin-3-yl]oxy}pyridin-3-yl)-3-methyl-5-{[5-(trifluoromethyl)pyrazin-2-yl]amino}-1,2-thiazole-4-carboxamide] | 600 | 300
4 | Cc1nsc(Nc2cnc(C(F)(F)F)cn2)c1C(=O)Nc1ccc(OC2CCN(CC(F)(F)F)C2)nc1 (centres unmarked) [Example 297, 3-methyl-N-(6-{[1-(2,2,2-trifluoroethyl)pyrrolidin-3-yl]oxy}pyridin-3-yl)-5-{[5-(trifluoromethyl)pyrazin-2-yl]amino}-1,2-thiazole-4-carboxamide] | 350 | 56
5 | Cc1nsc(Nc2cnc(C(F)(F)F)cn2)c1C(=O)Nc1ccc(OC2CCN(CCC(F)(F)F)C2)nc1 (centres unmarked) [Example 298, 3-methyl-5-{[5-(trifluoromethyl)pyrazin-2-yl]amino}-N-(6-{[1-(3,3,3-trifluoropropyl)pyrrolidin-3-yl]oxy}pyridin-3-yl)-1,2-thiazole-4-carboxamide] | 330 | 740
6 | Cc1nsc(Nc2cnc(C(F)(F)F)cn2)c1C(=O)Nc1ccc(N(C)C)c(OCCCN(C)CC(F)(F)F)c1 [Example 299, N-[4-(dimethylamino)-3-{3-[methyl(2,2,2-trifluoroethyl)amino]propoxy}phenyl]-3-methyl-5-{[5-(trifluoromethyl)pyrazin-2-yl]amino}-1,2-thiazole-4-carboxamide] | 260 | 190
7 | Cc1nsc(Nc2cnc(C(F)(F)F)cn2)c1C(=O)Nc1ccc(N(C)C)c(OCCCN(C)CCC(F)(F)F)c1 [Example 300, N-[4-(dimethylamino)-3-{3-[methyl(3,3,3-trifluoropropyl)amino]propoxy}phenyl]-3-methyl-5-{[5-(trifluoromethyl)pyrazin-2-yl]amino}-1,2-thiazole-4-carboxamide] | 550 | 2000
8 | Cc1nsc(Nc2cnc(C(F)(F)F)cn2)c1C(=O)Nc1ccc(F)c(OCCCN(C)CC(F)F)c1 [Example 301, N-(3-{3-[(2,2-difluoroethyl)(methyl)amino]propoxy}-4-fluorophenyl)-3-methyl-5-{[5-(trifluoromethyl)pyrazin-2-yl]amino}-1,2-thiazole-4-carboxamide] | 360 | 810
9 | Cc1nsc(Nc2cnc(C(F)(F)F)cn2)c1C(=O)Nc1ccc(F)c(OCCCN(C)CC(F)(F)F)c1 [Example 302, N-(4-fluoro-3-{3-[methyl(2,2,2-trifluoroethyl)amino]propoxy}phenyl)-3-methyl-5-{[5-(trifluoromethyl)pyrazin-2-yl]amino}-1,2-thiazole-4-carboxamide] | 340 | 430
10 | Cc1nsc(Nc2cnc(C(F)(F)F)cn2)c1C(=O)Nc1ccc(F)c(OCCCN(C)CCC(F)(F)F)c1 [Example 303, N-(4-fluoro-3-{3-[methyl(3,3,3-trifluoropropyl)amino]propoxy}phenyl)-3-methyl-5-{[5-(trifluoromethyl)pyrazin-2-yl]amino}-1,2-thiazole-4-carboxamide] | 400 | 32
11 | Cc1nsc(Nc2cncc(C(F)(F)F)n2)c1C(=O)Nc1ccc(OC2CCN(CCC(F)(F)F)CC2)nc1 [Example 304, 3-methyl-5-{[6-(trifluoromethyl)pyrazin-2-yl]amino}-N-(6-{[1-(3,3,3-trifluoropropyl)piperidin-4-yl]oxy}pyridin-3-yl)-1,2-thiazole-4-carboxamide] | 360 | 90
12 | Cc1nsc(Nc2cnc(C(F)(F)F)cn2)c1C(=O)Nc1ccc(OCCNCC(F)F)nc1 [Example 305, N-(6-{2-[(2,2-difluoroethyl)amino]ethoxy}pyridin-3-yl)-3-methyl-5-{[5-(trifluoromethyl)pyrazin-2-yl]amino}-1,2-thiazole-4-carboxamide] | 1100 | 220

Continued, values first:

Row | IC50 (HeLa) [nM] | IC50 [1] [nM] | Compound
13 | 570 | 95 | Cc1nsc(Nc2cnc(C(F)(F)F)cn2)c1C(=O)Nc1ccc(F)c(OCCCNCC(F)(F)F)c1 [Example 306, N-(4-fluoro-3-{3-[(2,2,2-trifluoroethyl)amino]propoxy}phenyl)-3-methyl-5-{[5-(trifluoromethyl)pyrazin-2-yl]amino}-1,2-thiazole-4-carboxamide]
14 | 690 | 380 | Cc1nsc(Nc2cnc(C(F)(F)F)cn2)c1C(=O)Nc1ccc(F)c(OCCCNCCC(F)(F)F)c1 [Example 307, N-(4-fluoro-3-{3-[(3,3,3-trifluoropropyl)amino]propoxy}phenyl)-3-methyl-5-{[5-(trifluoromethyl)pyrazin-2-yl]amino}-1,2-thiazole-4-carboxamide]
15 | 340 | 51 | Cc1nsc(Nc2cnc(C(F)(F)F)cn2)c1C(=O)Nc1ccc(F)c(OCC2CCN(CC(F)F)CC2)c1 [Example 308, N-(3-{[1-(2,2-difluoroethyl)piperidin-4-yl]methoxy}-4-fluorophenyl)-3-methyl-5-{[5-(trifluoromethyl)pyrazin-2-yl]amino}-1,2-thiazole-4-carboxamide]
16 | 630 | 610 | Cc1nsc(Nc2cnc(C(F)(F)F)cn2)c1C(=O)Nc1ccc(F)c(OCC2CCN(CCF)CC2)c1 [Example 309, N-(4-fluoro-3-{[1-(2-fluoroethyl)piperidin-4-yl]methoxy}phenyl)-3-methyl-5-{[5-(trifluoromethyl)pyrazin-2-yl]amino}-1,2-thiazole-4-carboxamide]
17 | 230 | 49 | Cc1nsc(Nc2cnc(C(F)(F)F)cn2)c1C(=O)Nc1ccc(F)c(OCC2CCN(CC(F)(F)F)CC2)c1 [Example 310, N-(4-fluoro-3-{[1-(2,2,2-trifluoroethyl)piperidin-4-yl]methoxy}phenyl)-3-methyl-5-{[5-(trifluoromethyl)pyrazin-2-yl]amino}-1,2-thiazole-4-carboxamide]
18 | 330 | 480 | Cc1nsc(Nc2cnc(C(F)(F)F)cn2)c1C(=O)Nc1ccc(F)c(OCC2CCN(CCC(F)(F)F)CC2)c1 [Example 311, N-(4-fluoro-3-{[1-(3,3,3-trifluoropropyl)piperidin-4-yl]methoxy}phenyl)-3-methyl-5-{[5-(trifluoromethyl)pyrazin-2-yl]amino}-1,2-thiazole-4-carboxamide]
19 | 620 | 55 | Cc1nsc(Nc2cnc(C(F)(F)F)cn2)c1C(=O)Nc1ccc(OC2CCN(C(CF)CF)C2)nc1 (centres unmarked) [Example 313, N-(6-{[1-(1,3-difluoropropan-2-yl)pyrrolidin-3-yl]oxy}pyridin-3-yl)-3-methyl-5-{[5-(trifluoromethyl)pyrazin-2-yl]amino}-1,2-thiazole-4-carboxamide]
